Results taken from patent publication US20140371244A1, “METHOD FOR TREATING PROSTATE CANCER BY USE OF PHARMACEUTICAL COMPOSITION CONTAINING A3 ADENOSINE RECEPTOR AGONIST” (priority 2009, published 2014).

Assays:
[1] = test system: LPS-induced sepsis; experiment: Animal model with LPS-induced sepsis; format: in vivo, ICR mice; details: LPS (S. marcenes) 2 mg/kg then 10 mg/kg
Experimental: The effect of the inventive composition (thio-Cl-IB-MECA) in an animal model with LPS-induced sepsis was tested. S. marcenes-derived LPS used in the test is known to be strongly pathogenic compared to E. coli-derived LPS. First, LPS was administered at low dose to attenuate an immune response in animals, and after a given time, it was administered at high dose to rapidly induce sepsis and septic shock. Specifically, ICR mice (20-25 g, male) were divided into the following 5 groups, each consisting of 6 mice: a normal group not treated with any substance; a control group administered with only saline; groups administered with the inventive composition (200 and 500 μg/kg of thio-Cl-IB-MECA); and a group administered with the conventional A3 adenosine receptor agonist (500 μg/kg IB-MECA). 30 minutes administration of these drugs, a solution of 2 mg/kg LPS (S. marcenes) in saline was administered intraabdominally. After 20 hours, the drug was administered again, and 30 minutes, LPS (S. marcenes) was administered again at a dose of 10 mg/kg. The mice were observed hourly up to 6 hours after the second stimulation, and the survival rate was observed up to 7 days after the second stimulation. The effect of the inventive composition (thio-Cl-IB-MECA) was compared with the effect of the prior A3 adenosine receptor agonist (IB-MECA), and the effects of the inventive composition (thio-Cl-IB-MECA) at different doses (200 and 500 μg/kg) were compared with each other.
The change in bodyweight was measured before the start of the test, before the second administration of the drug, and 7 days after the second administration.

[2] = test system: LNCaP (androgen receptor dependent); experiment: SRB assay, growth of LNCaP cells; format: cell-based, human; details: for IC50: SRB, 3 days
Experimental: (§1) In order to examine the inhibitory effects on the growth of the human prostate cancer cells LNCaP (androgen receptor dependent) and PC-3 (androgen receptor independent), a sulforhodamine B (SRB) assay was performed.
(§2) 10 μL of a solution of thio-Cl-IB-MECA in 10% dimethylsulfoxide (DMSO) was loaded in each well of a 96-well plate in triplicate at concentrations of 50, 25, 12.5 and 6.25 μM, thus making a test plate. Cells were diluted to a density of 6×10^4 cells/ml with 10% FBS-containing RPMI 1640 medium supplemented with antibiotics-antimycotics, and 190 μL of the cell suspension was added to each well so as to reach a total volume of 200 μL and was cultured in a 5% CO2 incubator at 37° C. for 3 days. At the same time, 190 μL of the same cell suspension was loaded into each of 16 wells or more of a fresh 96-well plate containing no sample (thio-Cl-IB-MECA) and was cultured in a 5% CO2 incubator at 37° C. for 30 minutes, thereby determining reference date. After the culture, 50 μL of 50% trichloroacetic acid (TCA) was added to each well, and the cells were fixed by culture at 4° C. for 1 hour. Then, the well plate was washed five times with tap water and dried. 100 μL of 1% acetic acid solution containing […] sulforhodamine B (SRB) was added to each well to stain the cells, and the well plate was allowed to stand at room temperature for 1 hour. After the well plate has been washed five times with 1% acetic acid and sufficiently dried, 200 μL of 100 mM Tris-base was added to each well, and the bound staining liquid was dissolved and sufficiently shaken in a shaker. Then, the absorbance at 515 nm was measured using an ELISA microplate reader. Based on the measured absorbance, the cell viability of the test group relative to the control group was calculated using the following equation 2, and based on the viability at each concentration, the IC50 value of the sample was calculated using TableCurve program: […]

[3] = test system: PC-3 (androgen receptor independent); experiment: SRB assay, growth of PC-3 cells; format: cell-based, human; details: for IC50: SRB, 3 days
Experimental: as §1, §2

[4] = test system: prostate cancer cell line PC-3; experiment: Anticancer activity in PC-3 tumor-transplanted nude mice; format: in vivo; details: for tumor production inhibitory activity relative to the control group: 2 mg/kg orally every day for 35 days
Experimental: Based on the anticancer activity of thio-Cl-IB-MECA against prostate cancer cells, proven by the in vitro test, the anticancer activity of thio-Cl-IB-MECA was measured by an animal test. The prostate cancer cell line PC-3 was transplanted subcutaneously into nude mice, and when the tumor size reached 150-200 mm^3 after 8 days, the drug thio-Cl-IB-MECA (0.02, 0.2 and 2 mg/kg), thio-IB-MECA (2 mg/kg) or IB-MECA (2 mg/kg) was administered orally every day for 35 days. The tumor size was measured at intervals of 3-5 days. The tumor volume was measured using the following equation 3.
Tumor volume=abc×π/6 [Equation 3]
wherein a represents the longer diameter of the tumor, b represents the shorter diameter of the tumor, and c represents the height of the tumor.

[5] = test system: human colorectal cancer HCT 116 cells; experiment: Anticancer activity in nude mice transplanted with HCT 116 cells; format: in vivo, nude mice (Balb/c-nu/nu mice); details: for side effects (such as a change in bodyweight) during the test period: 0.02, 0.2 and 2 mg/kg orally for 21 days
Experimental: HCT 116 cells were prepared at a concentration of 2×10^6 cells/200 μl (RPMI) and administered subcutaneously into the right frank of 6-week-old female nude mice (Balb/c-nu/nu mice). The tumor size was measured with calipers, and the tumor size reached about 100 mm^3, 20 mice having substantially the same tumor size were divided into a control group and three sample-treated groups. The three sample-treated group were administered orally with IB-MECA at doses of 0.02, 0.2 and 2 mg/kg, respectively, for 21 days. In the control group and the sample-treated groups, the bodyweight was measured once every week, and the tumor size was measured at intervals of 3-4 days. The tumor volume was measured using equation 3 above. In the equation, a represents the longer diameter of the tumor, b represents the shorter diameter of the tumor, and c represents the height of the tumor.
Anticancer activity was measured by an animal test in the same manner as Example 20, except that 6-week-old female nude mice were administered with Cl-IB-MECA in place of IB-MECA as a sample.
Anticancer activity was measured by an animal test in the same manner as Example 20, except that 6-week-old female nude mice were administered with thio-Cl-IB-MECA in place of IB-MECA as a sample.

Compound | survival rate after 1 day ([1]; 500 μg/kg) [%] | cell viability in LNCaP ([2]; 50 μM (highest concentration)) [%] | IC50 [2] [µM] | cell viability in PC-3 ([3]; 50 μM (highest concentration)) [%] | IC50 [3] [µM] | tumor production inhibitory activity relative to the control group [4] | inhibition rate of tumor growth ([5]; 0.02 mg/kg orally for 21 days) [%] | inhibition rate of tumor growth ([5]; 0.2 mg/kg orally for 21 days) [%] | inhibition rate of tumor growth ([5]; 2 mg/kg orally for 21 days) [%] | side effects (such as a change in bodyweight) during the test period [5] | survival rate after 1 day ([1]; 200 μg/kg) [%] | tumor production as a function of dose ([4]; 0.02, 0.2 and 2 mg/kg orally every day for 35 days)
CNC(=O)[C@H]1O[C@@H](n2cnc3c(NCc4cccc(I)c4)ncnc32)[C@H](O)[C@@H]1O [IB-MECA] | 66.7 | 54 | 54.2 | 63 | 97.1 | about 45.9% | 20.7 | 48.7 | 58.6 | survived healthfully without particular side effects | – | –
CNC(=O)[C@H]1S[C@@H](n2cnc3c(NCc4cccc(I)c4)nc(Cl)nc32)[C@H](O)[C@@H]1O [thio-Cl-IB-MECA, 2-chloro-N^6-(3-iodobenzyl)-4′-thioadenosine-5′-N-methyluronamide] | 66.7 | – | 18.6 | – | 20.4 | 82.6% | 16.1 | 54.4 | 62.1 | survived healthfully without particular side effects | 71.4 | inhibited tumor production in a concentration-dependent manner
